Assay results taken from ChEMBL document CHEMBL3046358, “Multiple Pro-197 substitutions in the acetolactate synthase of rigid ryegrass (Lolium rigidum) and their impact on chlorsulfuron activity and plant growth” (Crop Prot, 2012).

Tests used:
[1] = tested on: Lolium rigidum; experiment: Herbicidal activity against Lolium rigidum accession A11 assessed as fresh weight reduction applied at 4 times pre-emergence recommended rate relative to untreated control; type: functional; set-up: scale not given: the % may be the effect or the level left
[2] = tested on: Lolium rigidum; experiment: Herbicidal activity against Lolium rigidum accession A02 assessed as emergence rate applied at 1 times pre-emergence recommended rate relative to untreated control; type: functional
[3] = tested on: Lolium rigidum; experiment: Herbicidal activity against Lolium rigidum accession A14 assessed as emergence rate applied at 1 times pre-emergence recommended rate applied in pots where terbufos had been incorporated into the soil relative to untreated control; type: functional
[4] = tested on: Lolium rigidum; experiment: Herbicidal activity against Lolium rigidum accession A06 assessed as fresh weight reduction applied at 1 times pre-emergence recommended rate applied in pots where terbufos had been incorporated into the soil relative to untreated control; type: functional; set-up: scale not given: the % may be the effect or the level left
[5] = tested on: Lolium rigidum; experiment: Herbicidal activity against Lolium rigidum accession A09 assessed as emergence rate applied at 1 times pre-emergence recommended rate applied in pots where terbufos had been incorporated into the soil relative to untreated control; type: functional
[6] = tested on: Lolium rigidum; experiment: Herbicidal activity against Lolium rigidum accession A01 assessed as emergence rate applied at 4 times pre-emergence recommended rate relative to untreated control; type: functional
[7] = tested on: Lolium rigidum; experiment: Herbicidal activity against Lolium rigidum accession A05 assessed as fresh weight reduction applied at 1 times pre-emergence recommended rate applied in pots where terbufos had been incorporated into the soil relative to untreated control; type: functional; set-up: scale not given: the % may be the effect or the level left
[8] = tested on: Lolium rigidum; experiment: Herbicidal activity against Lolium rigidum accession A14 assessed as emergence rate applied at 4 times pre-emergence recommended rate relative to untreated control; type: functional
[9] = tested on: Lolium rigidum; experiment: Herbicidal activity against Lolium rigidum accession A06 assessed as fresh weight reduction applied at 1 times pre-emergence recommended rate relative to untreated control; type: functional; set-up: scale not given: the % may be the effect or the level left
[10] = tested on: Lolium rigidum; experiment: Herbicidal activity against Lolium rigidum accession A13 assessed as fresh weight reduction applied at 1 times pre-emergence recommended rate relative to untreated control; type: functional; set-up: scale not given: the % may be the effect or the level left
[11] = tested on: Lolium rigidum; experiment: Herbicidal activity against Lolium rigidum accession A02 assessed as fresh weight reduction applied at 4 times pre-emergence recommended rate relative to untreated control; type: functional; set-up: scale not given: the % may be the effect or the level left
[12] = tested on: Lolium rigidum; experiment: Herbicidal activity against Lolium rigidum accession A05 assessed as fresh weight reduction applied at 1 times pre-emergence recommended rate relative to untreated control; type: functional; set-up: scale not given: the % may be the effect or the level left
[13] = tested on: Lolium rigidum; experiment: Herbicidal activity against Lolium rigidum accession A01 assessed as emergence rate applied at 1 times pre-emergence recommended rate applied in pots where terbufos had been incorporated into the soil relative to untreated control; type: functional
[14] = tested on: Lolium rigidum; experiment: Herbicidal activity against Lolium rigidum accession A13 assessed as fresh weight reduction applied at 4 times pre-emergence recommended rate relative to untreated control; type: functional; set-up: scale not given: the % may be the effect or the level left
[15] = tested on: Lolium rigidum; experiment: Herbicidal activity against Lolium rigidum accession A08 assessed as fresh weight reduction applied at 1 times pre-emergence recommended rate applied in pots where terbufos had been incorporated into the soil relative to untreated control; type: functional; set-up: scale not given: the % may be the effect or the level left
[16] = molecular target: T1, Acetolactate synthase (Lolium rigidum, UniProt A7XBP7); experiment: Inhibition of acetolactate synthase in Lolium rigidum accession A01 leaves extracts by acetolactate production assay; details: read-out: I50
T1 sequence (A7XBP7 whole entry): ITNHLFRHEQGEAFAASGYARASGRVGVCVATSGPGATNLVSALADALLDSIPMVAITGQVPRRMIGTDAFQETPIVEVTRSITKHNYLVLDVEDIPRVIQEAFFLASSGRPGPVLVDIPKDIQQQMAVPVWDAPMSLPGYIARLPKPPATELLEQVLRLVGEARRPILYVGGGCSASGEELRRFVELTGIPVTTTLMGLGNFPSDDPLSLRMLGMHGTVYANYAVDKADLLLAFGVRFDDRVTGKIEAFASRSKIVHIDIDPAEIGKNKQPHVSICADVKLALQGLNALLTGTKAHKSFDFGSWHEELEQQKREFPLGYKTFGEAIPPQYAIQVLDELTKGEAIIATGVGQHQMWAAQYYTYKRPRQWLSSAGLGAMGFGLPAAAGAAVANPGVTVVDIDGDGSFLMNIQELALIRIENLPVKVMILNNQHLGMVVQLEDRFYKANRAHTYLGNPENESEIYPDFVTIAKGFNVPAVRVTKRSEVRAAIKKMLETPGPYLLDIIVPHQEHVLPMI

[17] = tested on: Lolium rigidum; experiment: Herbicidal activity against Lolium rigidum accession A15 assessed as emergence rate applied at 1 times pre-emergence recommended rate relative to untreated control; type: functional
[18] = tested on: Lolium rigidum; experiment: Herbicidal activity against Lolium rigidum accession A08 assessed as emergence rate applied at 1 times pre-emergence recommended rate applied in pots where terbufos had been incorporated into the soil relative to untreated control; type: functional
[19] = tested on: Lolium rigidum; experiment: Herbicidal activity against Lolium rigidum accession A09 assessed as fresh weight reduction applied at 1 times pre-emergence recommended rate relative to untreated control; type: functional; set-up: scale not given: the % may be the effect or the level left
[20] = molecular target: T2, Acetolactate synthase (Lolium rigidum, UniProt A7XBP7); experiment: Inhibition of acetolactate synthase Pro-197/Pro-197 mutant in Lolium rigidum accession A10 leaves extracts by acetolactate production assay; details: read-out: I50
[21] = tested on: Lolium rigidum; experiment: Herbicidal activity against Lolium rigidum accession A10 assessed as fresh weight reduction applied at 1 times pre-emergence recommended rate relative to untreated control; type: functional; set-up: scale not given: the % may be the effect or the level left
[22] = tested on: Lolium rigidum; experiment: Herbicidal activity against Lolium rigidum accession A04 assessed as emergence rate applied at 1 times pre-emergence recommended rate relative to untreated control; type: functional
[23] = molecular target: T2, Acetolactate synthase; experiment: Inhibition of acetolactate synthase Ala-197/Ala-197 mutant in Lolium rigidum accession A16 leaves extracts by acetolactate production assay; details: read-out: I50
[24] = tested on: Lolium rigidum; experiment: Herbicidal activity against Lolium rigidum accession A02 assessed as emergence rate applied at 4 times pre-emergence recommended rate relative to untreated control; type: functional
[25] = molecular target: T2, Acetolactate synthase; experiment: Inhibition of acetolactate synthase Ala-197/Ala-197 mutant in Lolium rigidum accession A19 leaves extracts by acetolactate production assay; details: read-out: I50
[26] = tested on: Lolium rigidum; experiment: Herbicidal activity against Lolium rigidum accession A07 assessed as emergence rate applied at 1 times pre-emergence recommended rate applied in pots where terbufos had been incorporated into the soil relative to untreated control; type: functional
[27] = tested on: Lolium rigidum; experiment: Herbicidal activity against Lolium rigidum accession A10 assessed as fresh weight reduction applied at 1 times pre-emergence recommended rate applied in pots where terbufos had been incorporated into the soil relative to untreated control; type: functional; set-up: scale not given: the % may be the effect or the level left
[28] = tested on: Lolium rigidum; experiment: Herbicidal activity against Lolium rigidum accession A05 assessed as fresh weight reduction applied at 4 times pre-emergence recommended rate relative to untreated control; type: functional; set-up: scale not given: the % may be the effect or the level left
[29] = tested on: Lolium rigidum; experiment: Herbicidal activity against Lolium rigidum accession A02 assessed as emergence rate applied at 1 times pre-emergence recommended rate applied in pots where terbufos had been incorporated into the soil relative to untreated control; type: functional
[30] = molecular target: T3, Acetolactate synthase (Lolium rigidum) (UniProt A7XBP7); experiment: Resistance index, ratio of I50 for acetolactate synthase Ser-197/Ser-197 mutant in Lolium rigidum accession A21 leaves extracts to I50 for acetolactate synthase in Lolium rigidum accession A01 leaves extracts
T3 sequence (whole entry): T1 sequence (A7XBP7 whole entry)

[31] = tested on: Lolium rigidum; experiment: Herbicidal activity against Lolium rigidum accession A01 assessed as fresh weight reduction applied at 1 times pre-emergence recommended rate applied in pots where terbufos had been incorporated into the soil relative to untreated control; type: functional; set-up: scale not given: the % may be the effect or the level left
[32] = tested on: Lolium rigidum; experiment: Herbicidal activity against Lolium rigidum accession A14 assessed as fresh weight reduction applied at 1 times pre-emergence recommended rate applied in pots where terbufos had been incorporated into the soil relative to untreated control; type: functional; set-up: scale not given: the % may be the effect or the level left
[33] = molecular target: Acetolactate synthase (Lolium rigidum, UniProt A7XBP7, P197L); experiment: Inhibition of acetolactate synthase Pro-197/Leu-197 mutant in Lolium rigidum accession A07 leaves extracts by acetolactate production assay; details: read-out: I50
[34] = tested on: Lolium rigidum; experiment: Herbicidal activity against Lolium rigidum accession A05 assessed as emergence rate applied at 4 times pre-emergence recommended rate relative to untreated control; type: functional
[35] = tested on: Lolium rigidum; experiment: Herbicidal activity against Lolium rigidum accession A11 assessed as emergence rate applied at 1 times pre-emergence recommended rate applied in pots where terbufos had been incorporated into the soil relative to untreated control; type: functional

Structure (SMILES): COc1nc(C)nc(NC(=O)NS(=O)(=O)c2ccccc2Cl)n1 [CHLORSULFURON]
- Activity [1]: 90%
- Activity [2]: 2%
- Activity [3]: 1%
- Activity [4]: 0%
- Activity [5]: 3%
- Activity [6]: 1%
- Activity [7]: 0%
- Activity [8]: 1%
- Activity [9]: 0%
- Activity [10]: 98%
- Activity [11]: 97%
- Activity [12]: 0%
- Activity [13]: 1%
- Activity [14]: 99%
- Activity [15]: 5%
- IC50 [16]: 30 nM
- Activity [17]: 2%
- Activity [18]: 91%
- Activity [19]: 78%
- IC50 [20]: 40 nM
- Activity [21]: 76%
- Activity [22]: 2%
- IC50 [23]: 7710 nM
- Activity [24]: 1%
- IC50 [25]: 18600 nM
- Activity [26]: 85%
- Activity [27]: 97%
- Activity [28]: 2%
- Activity [29]: 0%
- Ratio [30]: 53
- Activity [31]: 99%
- Activity [32]: 98%
- IC50 [33]: 1820 nM
- Activity [34]: 90%
- Activity [35]: 2%
